Experimental data: patent US11786555B2, “RAR selective agonists in combination with immune modulators for cancer immunotherapy” (IO THERAPEUTICS, INC., priority 2017, dated 2023)

Assays:
[1] = system: naive CD4+ CD25− FoxP3− cells; test: in vitro Th17 cell differentiation; type: cell-based, mouse; details: in vitro, data not shown
Experimental: (§1) To determine whether a RARα agonist could affect T cell differentiation, T cells were incubated with a RARα agonist to determine its effect on Foxp3 expression. Naive CD4^+ CD25^− FoxP3^− cells were purified from a Foxp3-GFP mouse using flow cytometry by sorting and isolating based upon a GFP^− phenotype. These cells were activated polyclonally with αCD3 in vitro in the presence of IL-2 and TGF-β. These cells were then cultured in media with various concentrations of compound IRX5183 (a RARα agonist) and the expression of FoxP3-GFP was analyzed by flow cytometry. The RARα agonist compound IRX5183 enhanced differentiation of immunosuppressive Treg cells and inhibited differentiation of inflammatory TH17 cells from naïve T cells in vitro (Table 2).

CD4+ T cells = test: in vivo T cell differentiation in mice (blood and spleen); parameters: species or system mouse; details: in vivo, data not shown
Experimental: To expand on the finding above, the in vivo effects of a RARα agonist on T cell differentiation was evaluated in a mouse model. Mice were treated with 100 μg of compound IRX5183 or an equivalent volume of DMSO (vehicle control) every other day for 10 days. Lymphocytes from the blood and spleen were then isolated and FoxP3 expression in CD4^+ T cells was assessed.

[2] = system: naive CD4+ CD25− FoxP3− cells; test: in vitro Treg cell differentiation (FoxP3-GFP, flow cytometry); type: cell-based, mouse; details: data not shown
Experimental: as §1

BM stromal cells = test: stromal Cyp26a1 upregulation by MM cells in coculture; type: cell-based, mouse; details: coculture with MM cells
Experimental: (§2) qRT-PCR. Total RNA was extracted using the RNeasy Mini Kit (QIAGEN) according to the manufacturer's instructions. cDNA was synthesized by reverse transcription using the iScript cDNA Synthesis Kit (Bio-Rad). qRT-PCR was performed with iTaq SYBR Green Supermix (Bio-Rad) using sequence specific primers. Gene expression was normalized to GAPDH, and relative quantification was calculated using ΔΔCt. All experiments were performed in duplicate and run on the Bio-Rad CFX96 machine.
To confirm the role of paracrine Hedgehog on this interaction, smoothened (Smo), a membrane receptor that transduces SHH signaling, was knocked out at the genomic level in the mesenchymal compartment. For this, BM mesenchymal cells derived from Smo^fl/fl mice were transduced with a retroviral vector encoding Cre recombinase (Smo-KO stroma). Mouse Smo^fl/fl stromal cells transduced with an empty retroviral vector were used as a control (WT stroma). The transduced BM stromal cells were cocultured with MM cells for 24 hr.

[3] = system: H929 cells and CD138+ primary MM cells; test: qRT-PCR of B cell and PC markers in MM cells, liquid or BM stroma co-culture; type: cell-based, human; details: absence of stroma (Liquid), 1 μM for 5 days
Experimental: FIG. 3A-H depicts the relative concentration of plasma markers BCL6 (FIG. 3A and E), BLIMP-1 (FIG. 3B and F), XBPS-1 (FIG. 3C and G), and CHOP (FIG. 3D and H) in multiple myeloma (MM) cell lines H929 (FIG. 3A-D) or CD138+ MM cells from three different patient samples (FIG. 3E-H) incubated for 5 days either in the absence of stroma (Liquid), with or without AGN (RA receptor antagonist AGN194310, 1 μM), or co-cultured with BM mesenchymal cells (Stroma), with or without R115 (CYP26 inhibitor R115866, 1 μM) or IRX (CYP26-resistant retinoid IRX5183, 1 μM). Expression in untreated liquid conditions was set at 1. Data are representative of 3 independent experiments with similar results and represent the mean ±SEM. *P≤0.05 and **P≤0.01, by repeated-measures 1-way ANOVA for determination of statistical significance between groups; P values were corrected for multiple comparisons using Dunnett's test. Ctrl, control; max, maximum.
(§3) Coculture experiments. 24-well plates were coated with 0.1% gelatin in PBS for 30 min at 37° C. The gelatin solution was removed, and the stromal cells were cultured overnight at a density of 5×10^4 cells/well to obtain a confluent monolayer. At that time, MM cell lines or primary MM cells (1×10^5 in 2 ml) were added to the stroma cultures. The stroma cocultures were incubated at 37° C. in RPMI containing 10% FCS, L-glutamine, and P/S, with or without AGN194310 (1 μM for 5 days), R115866 (1 μM for 5 days), IRX5183 (1 μM for 5 days), or BTZ (2.5 nM for 48 hr).
as §2
The BM microenvironment (also called “niche”) limits PC differentiation by modulating retinoid signaling. A population of MM progenitors, phenotypically similar to B cells, is intrinsically resistant to BTZ and contributes to MRD and relapse. To investigate whether the BM niche plays a role in determining the phenotype of MM cells, the mRNA expression of B cell and PC markers in MM H929 cell lines (FIG. 3A-D) and MM CD138+ primary cells (FIG. 3E-H) was analyzed following co-culture with mouse BM stroma using human-specific primers. […] In contrast, co-culture of MM cells with BM stroma decreased the mRNA expression of B lymphocyte-induced maturation protein 1 (BLIMP1) and spliced X box-binding protein 1 (XBP1s) (FIG. 3B, C, F, G), which are critical mediators of PC differentiation.
The BM niche regulates hematopoietic stem cell (HSC) differentiation by expressing the retinoid-inactivating enzyme CYP26. CYP26 enzymes were highly expressed in BM mesenchymal cells, while their expression was barely detectable in MM cells. Since retinoid signaling promotes PC differentiation and potentiates Ig secretion, it was determined whether stromal CYP26 is responsible for inducing a B cell phenotype in MM cells. To this end, co-culture conditions were treated with the CYP26 inhibitor R115866 (R115) or the CYP26-resistant RA receptor α-selective (RARα-selective) retinoid IRX5183 (IRX).

[4] = system: H929 cells and primary CD138+ MM cells; test: clonogenic or cellular recovery of MM cells after BTZ treatment; type: cell-based, human; details: absence of stroma, 1 μM for 5 days, then BTZ 2.5 nM
Experimental: FIG. 4A-B depicts the clonogenic recovery (CFU) of H929 cells (FIG. 4A) or cellular recovery of primary CD138+ MM cells from 3 different patient samples (FIG. 4B). MM cells were treated with bortezomib (BTZ; 2.5 nM) for 48 hours after being incubated for 5 days either in the absence of stroma (Liquid), with or without the pan-RAR inhibitor AGN (1 μM), or in the presence of BM mesenchymal cells (Stroma), with or without the CYP26 inhibitor R115 (1 μM) or the CYP26-resistant retinoid IRX (1 μM). Clonogenic or cellular recovery was normalized to each condition in the absence of BTZ.
as §3
Clonogenic assays. After treatment, MM cells were collected, washed with PBS, and plated at a density of 5,000 cells/ml in 1 ml of 1.32% methylcellulose supplemented with 30% FBS, 10% BSA, L-glutamine, P/S, and 0.1 mM β-ME. Cells were plated in triplicate in 35-mm culture dishes, incubated at 37° C., and scored for the presence of colonies 14 days later.
A RA-low microenvironment induces BTZ resistance. To determine whether decreased retinoid signaling contributes to BTZ resistance within the BM niche, MM cell lines and MM CD138+ primary cells were incubated with BM stroma for 5 days, followed by BTZ treatment.

MM cells = test: surface CD138 expression of MM cells by flow cytometry; type: cell-based, human; details: absence of stroma, 1 μM
Experimental: as §3
Flow cytometry. Following treatment, MM cells were collected, washed with PBS, and stained for 15 min at room temperature with phycoerythrin-conjugated (PE-conjugated) anti-CD138. Cells were washed to remove unbound antibody and evaluated in a FACSCalibur system (BD Biosciences). Stromal cells were identified by GFP expression, and viable cells were identified using 7-aminoactinomycin D (7-AAD). To calculate cell numbers, live GFP-cells were normalized to calibration beads.
Expression of CD138 is a hallmark of normal PC differentiation as well MM PCs.

[5] = system: relapse/refractory patients; details: in combination with BTZ; cited from earlier work
[6] = system: FLT3/ITD acute myeloid leukemia (AML) cells; details: cited from earlier work
Kasumi-1 cells = test: CFU experiments, off and on stroma; type: cell-based; details: 10^−6 M ATRA, IRX5183, or 10^−7 M AM80
From the text: (§4) Data across three independent experiments.

OCI-AML3 cells = test: CFU experiments, off and on stroma; type: cell-based; details: 10^−6 M ATRA, IRX5183, or 10^−7 M AM80
From the text: as §4

NB4 cells = test: CFU experiments, off and on stroma; type: cell-based; details: 10^−7 M ATRA, IRX5183, or 10^−8 M AM80
From the text: as §4

Compound: CCOc1c(Br)cc(C(=O)Nc2ccc(C(=O)O)cc2)cc1C(=O)c1ccc(C)cc1 [AGN196996]
- Th17 cell numbers [1]: increases Th17 cell numbers
- Th17 cell numbers (CD4+ T cells): increases Th17 cell numbers
- Treg cell numbers (CD4+ T cells): decreases Treg cell numbers
- Treg cell numbers [2]: decreases Treg cell numbers

Compound: CC1=C2C[C@H]3[C@@H](CC=C4C[C@@H](O)CC[C@@]43C)[C@@H]2CC[C@]12O[C@@H]1C[C@H](C)CN[C@H]1[C@H]2C [cyclopamine]
- stromal Cyp26a1 upregulation by MM cells (BM stromal cells): partially overcame stromal Cyp26a1 upregulation by MM cells

Compound: CCc1ccc(C2=CC(C)(C)Sc3ccc(C#Cc4ccc(C(=O)O)cc4)cc32)cc1 [AGN194310]
- mRNA expression of B cell and PC markers (BCL6, BLIMP1, XBP1s, CHOP) [3]: mimicked the changes induced by BM stromal cells
- effect on BTZ sensitivity [4]: decreasing BTZ sensitivity
- surface CD138 expression (MM cells): markedly decreased

Compound: c1cc(CN2CCCNCCNCCCNCC2)ccc1CN1CCCNCCNCCCNCC1 [plerixafor]
- response rates [5]: improved response rates

Compound: CC1(C)CCC(C)(C)c2cc(NC(=O)c3ccc(C(=O)O)cc3)ccc21 [AM80, 4-[(5,6,7,8-tetrahydro-5,5,8,8-tetramethyl-2-naphthalenyl)carbamoyl]benzoic acid]
- differentiation and sensitivity to FLT3 inhibitors [6]: differentiates FMS-like tyrosine kinase 3/internal tandem duplication (FLT3/ITD) acute myeloid leukemia (AML) cells and increase their sensitivity to FLT3 inhibitors
- clonogenic growth (CFU), differentiation and elimination of AML (Kasumi-1 cells): decrease in clonogenic growth compared to control
- clonogenic growth (CFU), differentiation and elimination of AML (OCI-AML3 cells): decrease in clonogenic growth compared to control
- clonogenic growth (CFU), differentiation and elimination of AML (NB4 cells): decrease in clonogenic growth compared to control
